The values below come from patent US9932327B2, “Rohitukine analogs as cyclin-dependent kinase inhibitors and a process for the preparation thereof” (COUNCIL OF SCIENTIFIC AND INDUSTRIAL RESEARCH, priority 2013, dated 2018).

Values after ≈ are worked out from the molar mass of the structure shown. Like-named read-outs stand apart in the source and are kept apart here.

Data set [1] concerns Ehrlich solid tumor (EAC cells). Kind of data set: In vivo anticancer activity in Ehrlich solid tumor mice model. Also on record: species or system Swiss mice. As to the method:
Ehrlich ascites carcinoma (EAC) cells were collected from the peritoneal cavity of the swiss mice harbouring 8-10 days old ascitic tumor. 1×10^7 EAC cells were injected intramuscularly in right thigh of 31 Swiss male mice selected for the experiment on day 0. The next day, animals were randomized and divided into four groups. Three treatment groups contained 7 animals each and one control group contained 10 animals. Treatment was given as follows:
Group I: Compound 33 (50 mg/kg i/p) from day 1-9.
Group II: Compound 33 (70 mg/kg i/p) from day 1-9.
The third treatment group was treated with 5-fluorouracil (22 mg/kg, i.p) from day 1-9 and it served as positive control. The control group was similarly administered normal saline (0.2 ml, i.p.) from day 1-9. On day 9 & 13, tumor bearing thigh of each animal was shaved and longest and shortest diameters of the tumor were measured with the help of vernier caliper. Tumor weight of each animal was calculated using the following formula.
The percent tumor growth inhibition was calculated on day 13 by comparing the average values of treated groups with that of control group. Tumor growth in saline treated control animals was taken to be 100%.

For data set [2], the system named is HL-60 (Leukemia). Kind of data set: Cytotoxicity, MTT assay, HL-60. It is filed as cell-based. The following applies: Homo sapiens. As to the method: (§1) Compounds proposed in the present invention were evaluated for their cytotoxic effect against panel of six cancer cell line viz. HL-60 (Leukemia), PC-3 (Prostate), A-375 (Melanoma), MIAPaCa-2 (pancreatic), MCF-7 (Breast) and Caco-2 (Colon) using MTT assay. In each well of a 96-well plate, 3×10^3 cells were grown in 100 μL of medium. After 24 h, each test molecules were added to achieve a final concentration of 10 to 0.01 μmol/L, respectively. After 48 h of treatment, 20 μL of 2.5 mg/mL MTT (Organics Research, Inc.) solution in phosphate buffer saline was added to each well. After 48 h, supernatant was removed and formazan crystals were dissolved in 200 μL of DMSO. Absorbance was then measured at 570 nm using an absorbance plate reader (Bio-Rad Microplate Reader). Data are expressed as the percentage of viable cells in treated relative to non-treated conditions.
In general terms: Formazan colour is commonly taken as a measure of viable cells.

Data set [3] is described as follows: Thermodynamic equilibrium solubility. It is filed as physicochemical. To be noted: 25 °C, thermodynamic from solid. As to the method:
The compounds were first dissolved in methanol to prepare stock solutions (100 and 1000 μg/mL). Different concentrations of stock solutions were pipetted into the 96-well plates and the solvent was evaporated to ensure that solid drug was present in the beginning of the experiment. […] The plates were kept overnight for equilibration of drug in medium. Later, the plates were centrifuged at 3000 rpm for 15 min (Jouan centrifuge BR4i). Supernatant (50 μl) was pipetted into UV 96-well plates (Corning® 96 Well Clear Flat Bottom UV-Transparent Microplate) for analyses with plate reader (SpectraMax Plus384) at λmax of 350 nm. The analyses were performed in triplicate for each compound. The solubility curve of concentration (μg/mL) vs absorbance was plotted to find out saturation point and the corresponding concentration was noted (Heikkilä, T. et al. Int. J. Pharm. 2011, 405, 132).

Data set [4] deals with CDK-2/cyclin A (Homo sapiens (Human), UniProt P24941). As to the kind of experiment: Inhibition of CDK-2/cyclin A. It is filed as biochemical.
Data set [5] has as its system Caco-2 (Colon). As to the kind of experiment: Cytotoxicity, MTT assay, Caco-2. It is filed as cell-based. To be noted: Homo sapiens. As to the method: as §1
Data set [6] concerns PC-3 (Prostate). As to the kind of experiment: Cytotoxicity, MTT assay, PC-3. Type of data set: cell-based. As to the method: as §1
In data set [7] the target is CDK-9/Cyclin T1 (Homo sapiens (Human), UniProt P50750). As to the kind of experiment: Inhibition of CDK-9/cyclin T1. The following applies: IC50 (nM) CDK-9/T1.
Chain of CDK-9/Cyclin T1 (P50750 whole entry): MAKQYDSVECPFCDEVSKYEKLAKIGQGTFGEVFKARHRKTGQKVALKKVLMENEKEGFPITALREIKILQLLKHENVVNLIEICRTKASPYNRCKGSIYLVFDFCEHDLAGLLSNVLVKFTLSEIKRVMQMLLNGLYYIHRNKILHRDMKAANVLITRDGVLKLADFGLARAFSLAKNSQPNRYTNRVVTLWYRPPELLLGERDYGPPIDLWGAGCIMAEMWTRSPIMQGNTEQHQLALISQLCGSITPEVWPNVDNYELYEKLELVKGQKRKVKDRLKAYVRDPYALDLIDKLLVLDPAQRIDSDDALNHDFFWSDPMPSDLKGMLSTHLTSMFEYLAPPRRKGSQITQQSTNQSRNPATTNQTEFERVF
Chain of CDK-9/Cyclin T1 (O60563 whole entry partner): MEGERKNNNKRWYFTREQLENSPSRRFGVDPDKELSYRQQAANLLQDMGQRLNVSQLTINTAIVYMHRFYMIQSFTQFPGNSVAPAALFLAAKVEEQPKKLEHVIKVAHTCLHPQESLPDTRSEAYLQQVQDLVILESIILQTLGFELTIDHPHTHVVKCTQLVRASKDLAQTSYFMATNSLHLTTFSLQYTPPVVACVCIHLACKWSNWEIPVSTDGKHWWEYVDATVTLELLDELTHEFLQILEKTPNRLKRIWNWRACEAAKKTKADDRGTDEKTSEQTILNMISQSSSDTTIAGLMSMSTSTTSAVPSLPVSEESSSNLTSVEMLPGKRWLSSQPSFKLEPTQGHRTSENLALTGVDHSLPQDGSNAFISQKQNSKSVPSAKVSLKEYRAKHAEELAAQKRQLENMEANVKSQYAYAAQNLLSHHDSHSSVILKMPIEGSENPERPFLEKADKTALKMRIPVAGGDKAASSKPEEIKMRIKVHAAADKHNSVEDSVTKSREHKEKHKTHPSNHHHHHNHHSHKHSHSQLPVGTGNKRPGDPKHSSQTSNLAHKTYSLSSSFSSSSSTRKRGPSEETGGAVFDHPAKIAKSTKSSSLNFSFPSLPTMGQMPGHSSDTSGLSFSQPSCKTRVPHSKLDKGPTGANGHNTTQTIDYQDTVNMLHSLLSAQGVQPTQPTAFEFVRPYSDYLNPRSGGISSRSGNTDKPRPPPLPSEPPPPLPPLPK
Method: (50-1000 cpm/pmole) and incubated for 30 mM at room temperature. Assays were stopped by addition of 5 μl of 0.5 M (3%) orthophosphoric acid and then harvested onto P81 Unifilter plates with a wash buffer of 50 mM orthophosphoric acid.
Data set [8] deals with A-375 (Melanoma). Kind of data set: Cytotoxicity, MTT assay, A-375. The following applies: Homo sapiens. It is filed as cell-based. As to the method: as §1
Data set [9] concerns MCF-7 (Breast). Kind of data set: Cytotoxicity, MTT assay, MCF-7. Type of data set: cell-based. The following applies: Homo sapiens, MCF7. As to the method:
as §1

Data set [10] relates to CDK1/cyclin B. To be noted: Gray, N. et al. Curr. Med. Chem. 1999, 6, 859; cited from earlier work.

`CN1CCC(c2c(O)cc(O)c3c(=O)cc(/C=C/c4c(Cl)cccc4Cl)oc23)C(O)C1` (stereo not drawn) [Compound 33, 2-(2,6-dichlorostyryl)-5,7-dihydroxy-8-(3-hydroxy-1-methylpiperidin-4-yl)-4H-chromen-4-one]: the “Day 13 % Tumor Growth Inhibition” value was 33.11% in [1] (50 mg/kg i/p day 1-9) and 37.65% in data set [1] (70 mg/kg i/p day 1-9). The “Day 13 Av. Tumor weights” value in data set [1] (50 mg/kg i/p day 1-9) is recorded as 989.12 mg; in [1] (70 mg/kg i/p day 1-9), 922.0 mg. Besides, the Mortality in data set [1] (50 mg/kg i/p day 1-9) and in data set [1] (70 mg/kg i/p day 1-9) was 0/7 in each case. For the same compound, the IC50 came out at 0.9 µM in data set [2]; 16 nM in [4]; 7 µM in data set [5]; 41 µM in [6]; 2 nM in data set [7]; 8 µM in data set [8]. It took 4 µM to reach half-maximal inhibition in [9] (IC50). For the same compound, the solubility in data set [3] (water, 25±1° C., read-out: Solubility in μg/mL, Water) is 5 µg/mL (≈ 10.8 µM); in data set [3] (phosphate buffer saline (PBS), aqueous buffer, read-out: Solubility in μg/mL, PBS) it was 5 µg/mL (≈ 10.8 µM); in data set [3] (simulated gastric fluid (SGF), simulated gastric fluid, read-out: Solubility in μg/mL, SGF), 40 µg/mL (≈ 86.5 µM); in data set [3] (simulated intestinal fluid (SIF), fassgf or other biorelevant, read-out: Solubility in μg/mL, SIF), 20 µg/mL (≈ 43.3 µM).

Regarding `CN(C)c1ncnc2nc[nH]c12` [dimethylaminopurine], in data set [10], the IC50 was 120 µM.

Usually IC50 stands for the concentration needed to halve the response being measured.
